Laboratory results reported in patent US6740642B2, “Macrolides with antibacterial activity” (BAsilea Parmaceutica AG, priority 2000, dated 2004).
In brackets after ≈: the same amount, converted by molar mass.

Tests used:
S. aureus 1086 = assay: MIC, standard microdilution; type: cell-based, Staphylococcus aureus; conditions: Staphylococcus aureus, read-out: minimum inhibitory concentration (MIC)
Method in brief: (§1)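 Standard dilution susceptibility testing in microdilution format was run per NCCLS approved standard M7-A4. It applies to bacteria that grow aerobically.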

S. aureus 745 = assay: MIC, standard microdilution; type: cell-based, Staphylococcus aureus; conditions: Staphylococcus aureus, read-out: minimum inhibitory concentration (MIC)
Method in brief: as §1

S. aureus ATCC29213 = assay: MIC, standard microdilution; type: cell-based, Staphylococcus aureus; conditions: Staphylococcus aureus, read-out: minimum inhibitory concentration (MIC)
Method in brief: as §1

E. coli ATCC25922 = assay: MIC, standard microdilution; type: cell-based; conditions: Escherichia coli, read-out: minimum inhibitory concentration (MIC)
Method in brief: as §1

[1] = test system: P. aeruginosa ATCC27853 (+Ery. 32 μg/ml); assay: MIC, standard microdilution; type: cell-based
Method in brief: as §1

St. pneumoniae 1/1 = assay: MIC, standard microdilution; type: cell-based, Streptococcus pneumoniae; conditions: Streptococcus pneumoniae, read-out: minimum inhibitory concentration (MIC)
Method in brief: as §1

St. pneumoniae 1/4 = assay: MIC, standard microdilution; type: cell-based, Streptococcus pneumoniae; conditions: Streptococcus pneumoniae, read-out: minimum inhibitory concentration (MIC)
Method in brief: as §1

St. pneumoniae 12288 = assay: MIC, standard microdilution; type: cell-based, Streptococcus pneumoniae; conditions: Streptococcus pneumoniae, read-out: minimum inhibitory concentration (MIC)
Method in brief: as §1

St. pneumoniae SL199T = assay: MIC, standard microdilution; type: cell-based, Streptococcus pneumoniae; conditions: Streptococcus pneumoniae, read-out: minimum inhibitory concentration (MIC)
Method in brief: as §1

H. influenzae 11 = assay: MIC, agar dilution, HTM medium; type: cell-based, Haemophilus influenzae; conditions: Haemophilus influenzae, read-out: MIC
Text: (§2) The biological activities of compounds of the present invention against Haemophilus influenzae have been determined by standard agar dilution method using HTM medium (National Committee for Clinical Laboratory Standards. 1997. Methods for dilution antimicrobial susceptibility tests for bacteria that grow aerobically, 4th edition. Approved standard M7-A4. National Committee for Clinical Laboratory Standards, Wayne, Pa.).

H. influenzae 12214 = assay: MIC, agar dilution, HTM medium; type: cell-based, Haemophilus influenzae; conditions: Haemophilus influenzae, read-out: MIC
Text: as §2

H. influenzae 1 = assay: MIC, agar dilution, HTM medium; type: cell-based, Haemophilus influenzae; conditions: Haemophilus influenzae, read-out: MIC
Text: as §2

H. influenzae 23145 = assay: MIC, agar dilution, HTM medium; type: cell-based, Haemophilus influenzae; conditions: Haemophilus influenzae, read-out: MIC
Text: as §2

H. influenzae 23369 = assay: MIC, agar dilution, HTM medium; type: cell-based, Haemophilus influenzae; conditions: Haemophilus influenzae, read-out: MIC
Text: as §2

H. influenzae 2947 = assay: MIC, agar dilution, HTM medium; type: cell-based, Haemophilus influenzae; conditions: Haemophilus influenzae, read-out: MIC
Text: as §2

H. influenzae 3201 = assay: MIC, agar dilution, HTM medium; type: cell-based, Haemophilus influenzae; conditions: Haemophilus influenzae, read-out: MIC
Text: as §2

H. influenzae 3457 = assay: MIC, agar dilution, HTM medium; type: cell-based, Haemophilus influenzae; conditions: Haemophilus influenzae, read-out: MIC
Text: as §2

H. influenzae 3640 = assay: MIC, agar dilution, HTM medium; type: cell-based, Haemophilus influenzae; conditions: Haemophilus influenzae, read-out: MIC
Text: as §2

H. influenzae 4139 = assay: MIC, agar dilution, HTM medium; type: cell-based, Haemophilus influenzae; conditions: Haemophilus influenzae, read-out: MIC
Text: as §2

H. influenzae ATCC 49247 = assay: MIC, agar dilution, HTM medium; type: cell-based, Haemophilus influenzae; conditions: Haemophilus influenzae, ATCC49247, read-out: MIC
Text: as §2

H. influenzae ATCC 9334 = assay: MIC, agar dilution, HTM medium; type: cell-based, Haemophilus influenzae; conditions: Haemophilus influenzae, ATCC9334, read-out: MIC
Text: as §2

H. influenzae B 1501 = assay: MIC, agar dilution, HTM medium; type: cell-based, Haemophilus influenzae; conditions: Haemophilus influenzae, B1501, read-out: MIC
Text: as §2

H. influenzae Christy = assay: MIC, agar dilution, HTM medium; type: cell-based, Haemophilus influenzae; conditions: Haemophilus influenzae, read-out: MIC
Text: as §2

H. influenzae H13 LAH = assay: MIC, agar dilution, HTM medium; type: cell-based, Haemophilus influenzae; conditions: Haemophilus influenzae, H13LAH, read-out: MIC
Text: as §2

H. influenzae H20 HDL = assay: MIC, agar dilution, HTM medium; type: cell-based, Haemophilus influenzae; conditions: Haemophilus influenzae, H20HDL, read-out: MIC
Text: as §2

H. influenzae H28 HEL = assay: MIC, agar dilution, HTM medium; type: cell-based, Haemophilus influenzae; conditions: Haemophilus influenzae, H28HEL, read-out: MIC
Text: as §2

H. influenzae H36 ODL = assay: MIC, agar dilution, HTM medium; type: cell-based, Haemophilus influenzae; conditions: Haemophilus influenzae, H36ODL, read-out: MIC
Text: as §2

H. influenzae QK 12/87 = assay: MIC, agar dilution, HTM medium; type: cell-based, Haemophilus influenzae; conditions: Haemophilus influenzae, QK12/87, read-out: MIC
Text: as §2

H. influenzae QK 50 = assay: MIC, agar dilution, HTM medium; type: cell-based, Haemophilus influenzae; conditions: Haemophilus influenzae, QK50, read-out: MIC
Text: as §2

H. influenzae Rd KW20 = assay: MIC, agar dilution, HTM medium; type: cell-based, Haemophilus influenzae; conditions: Haemophilus influenzae, RDKW20, read-out: MIC
Text: as §2

Row | Compound | MIC (S. aureus 1086) | MIC (S. aureus 745) | MIC (S. aureus ATCC29213) | MIC (E. coli ATCC25922) | minimum inhibitory concentration (MIC) [1] | MIC (St. pneumoniae 1/1) | MIC (St. pneumoniae 1/4) | MIC (St. pneumoniae 12288) | MIC (St. pneumoniae SL199T) | MIC (H. influenzae 11) | MIC (H. influenzae 12214) | MIC (H. influenzae 1) | MIC (H. influenzae 23145) | MIC (H. influenzae 23369) | MIC (H. influenzae 2947) | MIC (H. influenzae 3201) | MIC (H. influenzae 3457) | MIC (H. influenzae 3640) | MIC (H. influenzae 4139) | MIC (H. influenzae ATCC 49247) | further results
1 | CC[C@H]1OC(=O)[C@H](C)C(=O)[C@H](C)[C@@H](O[C@@H]2O[C@H](C)C[C@H](N(C)C)[C@H]2O)[C@](C)(OC)C[C@@H](C)C(=O)[C@H](C)[C@H]2[C@H](SCCn3cc(C)c(=O)[nH]c3=O)C(=O)O[C@@]21C [Compound I-7, (3S,3aR,4R,6R,8R,9R,10R,12R,15R,15aS)-15-Ethyloctahydro-8-methoxy-4,6,8,10,12,15a-hexamethyl-3-[[2-[5-methyl-2,4-1H,3H-pyrimidinedione-1-yl]ethyl]thio]-9-[[3,4,6-trideoxy-3-(dimethylamino)-β-D-xylo-hexopyranosyl]oxy]-2H-furo[2,3-c]oxacyclotetradecin-2,5,11,13(3H,6H,12H)-tetrone] | ≤ 0.12 µg/mL | > 16 µg/mL | ≤ 0.12 µg/mL | > 16 µg/mL | >16 µg/mL | ≤ 0.12 µg/mL | ≤ 0.12 µg/mL | 8 µg/mL (≈ 10.1 µM) | 1 µg/mL (≈ 1.26 µM) | 4 µg/mL (≈ 5.03 µM) | 4 µg/mL (≈ 5.03 µM) | 4 µg/mL (≈ 5.03 µM) | 4 µg/mL (≈ 5.03 µM) | 8 µg/mL (≈ 10.1 µM) | 4 µg/mL (≈ 5.03 µM) | 4 µg/mL (≈ 5.03 µM) | 0.5 µg/mL (≈ 0.628 µM) | 2 µg/mL (≈ 2.51 µM) | 2 µg/mL (≈ 2.51 µM) | 4 µg/mL (≈ 5.03 µM) | MIC (H. influenzae ATCC 9334): 4 µg/mL (≈ 5.03 µM); MIC (H. influenzae B 1501): 4 µg/mL (≈ 5.03 µM); MIC (H. influenzae Christy): 4 µg/mL (≈ 5.03 µM); MIC (H. influenzae H13 LAH): 4 µg/mL (≈ 5.03 µM); MIC (H. influenzae H20 HDL): 2 µg/mL (≈ 2.51 µM); MIC (H. influenzae H28 HEL): 2 µg/mL (≈ 2.51 µM); MIC (H. influenzae H36 ODL): 8 µg/mL (≈ 10.1 µM); MIC (H. influenzae QK 12/87): 2 µg/mL (≈ 2.51 µM); MIC (H. influenzae QK 50): 4 µg/mL (≈ 5.03 µM); MIC (H. influenzae Rd KW20): 4 µg/mL (≈ 5.03 µM)
2 | CC[C@H]1OC(=O)[C@H](C)[C@@H](O[C@H]2C[C@@](C)(OC)[C@@H](O)[C@H](C)O2)[C@H](C)[C@@H](O[C@@H]2O[C@H](C)C[C@H](N(C)C)[C@H]2O)[C@](C)(OC)C[C@@H](C)C(=O)[C@H](C)[C@@H](O)[C@]1(C)O [Clarithromycin (2), clarithromycin] | 16 µg/mL (≈ 21.4 µM) | > 16 µg/mL | 0.25 µg/mL (≈ 0.334 µM) | > 16 µg/mL | >16 µg/mL | ≤ 0.12 µg/mL | 16 µg/mL (≈ 21.4 µM) | > 16 µg/mL | 16 µg/mL (≈ 21.4 µM) | 16 µg/mL (≈ 21.4 µM) | 8 µg/mL (≈ 10.7 µM) | 8 µg/mL (≈ 10.7 µM) | 8 µg/mL (≈ 10.7 µM) | 16 µg/mL (≈ 21.4 µM) | 16 µg/mL (≈ 21.4 µM) | 16 µg/mL (≈ 21.4 µM) | 1 µg/mL (≈ 1.34 µM) | 4 µg/mL (≈ 5.35 µM) | 4 µg/mL (≈ 5.35 µM) | 8 µg/mL (≈ 10.7 µM) | MIC (H. influenzae ATCC 9334): 8 µg/mL (≈ 10.7 µM); MIC (H. influenzae B 1501): 8 µg/mL (≈ 10.7 µM); MIC (H. influenzae Christy): 8 µg/mL (≈ 10.7 µM); MIC (H. influenzae H13 LAH): 8 µg/mL (≈ 10.7 µM); MIC (H. influenzae H20 HDL): 4 µg/mL (≈ 5.35 µM); MIC (H. influenzae H28 HEL): 4 µg/mL (≈ 5.35 µM); MIC (H. influenzae H36 ODL): 16 µg/mL (≈ 21.4 µM); MIC (H. influenzae QK 12/87): 2 µg/mL (≈ 2.67 µM); MIC (H. influenzae QK 50): 8 µg/mL (≈ 10.7 µM); MIC (H. influenzae Rd KW20): 8 µg/mL (≈ 10.7 µM)
